Eleven compounds from patent publication US8975417B2, “Pyrazolopyrrolidine derivatives and their use in the treatment of disease” (Novartis AG, priority 2013, dated 2015) can be followed below.

For this test, the system named is MV-4-11 cells. Put plainly: Cell growth inhibition assay (CellTiter-Glo), MV-4-11. Particulars: Homo sapiens, MV4-11, read-out: MV-4-11 TGI. The test is classed as cell-based. An outline of the steps:
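CTG luminescence (cellular ATP) after compound treatment; values background- and day 0-corrected, vehicle (0.1% DMSO) = 100%, medium only = −100%. Dose range: 3-fold dilutions from 10 μM. IC50/TGI by 4-parameter fit.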
(Cellular ATP, detected with luciferase, serves as a proxy for viable cell number.)
Take `Cc1cc(N2C(=O)c3c(cnn3C3CC3)C2c2ccc(Cl)cc2)cn(C)c1=O` (centres unmarked) [Example 34, 4-(4-chlorophenyl)-1-cyclopropyl-5-(1,5-dimethyl-6-oxo-1,6-dihydropyridin-3-yl)-4,5-dihydropyrrolo[3,4-c]pyrazol-6(1H)-one]: the IC (total growth inhibition) turned out to be 0.14 µM. For `Cn1cc(N2C(=O)c3c(c(C(F)(F)F)nn3C3CC3)C2c2ccc(Cl)cc2)cc(Cl)c1=O` (centres unmarked) [Example 44, 5-(5-chloro-1-methyl-6-oxo-1,6-dihydropyridin-3-yl)-4-(4-chlorophenyl)-1-cyclopropyl-3-(trifluoromethyl)-4,5-dihydropyrrolo[3,4-c]pyrazol-6(1H)-one], the IC (total growth inhibition) amounted to 0.329 µM.

As for `Cc1nn(C2CC2)c2c1[C@@H](c1ccc(Cl)cc1)N(c1cc(C)c(=O)n(C)c1)C2=O` [Example 49, (R)-4-(4-chlorophenyl)-1-cyclopropyl-5-(1,5-dimethyl-6-oxo-1,6-dihydropyridin-3-yl)-3-methyl-4,5-dihydropyrrolo[3,4-c]pyrazol-6(1H)-one], the IC (total growth inhibition) worked out at 0.0394 µM. In the case of `Cc1nn(C2CC2)c2c1[C@@H](c1ccc(Cl)cc1)N(c1cc(Cl)c(=O)n(C)c1)C2=O` [Example 51, (R)-5-(5-chloro-1-methyl-6-oxo-1,6-dihydropyridin-3-yl)-4-(4-chlorophenyl)-1-cyclopropyl-3-methyl-4,5-dihydropyrrolo[3,4-c]pyrazol-6(1H)-one], the IC (total growth inhibition) turned out to be 0.0883 µM. For `COc1ncc(-n2nc3c(c2C(C)C)C(c2ccc(Cl)cc2)N(c2ccc4onc(C)c4c2)C3=O)c(OC)n1` (centres unmarked) [Example 54, 4-(4-chlorophenyl)-2-(2,4-dimethoxypyrimidin-5-yl)-3-isopropyl-5-(3-methylbenzo-[d]isoxazol-5-yl)-4,5-dihydropyrrolo[3,4-c]pyrazol-6(2H)-one] the value was 0.661 µM; for `COc1ncc(-n2nc3c(c2C)C(c2ccc(Cl)cc2)N(c2cc(Cl)c(=O)n(C)c2)C3=O)c(OC)n1` (centres unmarked) [Example 55, 5-(5-chloro-1-methyl-6-oxo-1,6-dihydropyridin-3-yl)-4-(4-chlorophenyl)-2-(2,4-dimethoxypyrimidin-5-yl)-3-methyl-4,5-dihydropyrrolo[3,4-c]pyrazol-6(2H)-one], 0.123 µM; for `CCc1nn(C2CC2)c2c1C(c1ccc(Cl)cc1)N(c1cc(C)c3nnc(C)n3c1)C2=O` (centres unmarked) [Example 70, 4-(4-chlorophenyl)-1-cyclopropyl-5-(3,8-dimethyl-[1,2,4]triazolo[4,3-a]pyridin-6-yl)-3-ethyl-4,5-dihydropyrrolo[3,4-c]pyrazol-6(1H)-one], 0.0131 µM. For `COc1ncccc1-n1nc(C)c2c1C(=O)N(c1cc(Cl)c(=O)n(C)c1)C2c1ccc(Cl)cc1` (centres unmarked) [Example 72, 5-(5-chloro-1-methyl-6-oxo-1,6-dihydropyridin-3-yl)-4-(4-chlorophenyl)-1-(2-methoxypyridin-3-yl)-3-methyl-4,5-dihydropyrrolo[3,4-c]pyrazol-6(1H)-one], the IC (total growth inhibition) is 0.164 µM.

On to `Cc1cc(N2C(=O)c3nn(C)c(O)c3C2c2ccc(Cl)cc2)cn(C)c1=O` (centres unmarked) [Example 73, 4-(4-chlorophenyl)-5-(1,5-dimethyl-6-oxo-1,6-dihydropyridin-3-yl)-3-hydroxy-2-methyl-4,5-dihydropyrrolo[3,4-c]pyrazol-6(2H)-one], for which the IC (total growth inhibition) turned out to be 4.4 µM. For `CCOc1c2c(nn1C)C(=O)N(c1cc(C)c(=O)n(C)c1)C2c1ccc(Cl)cc1` (centres unmarked) [Example 76, 4-(4-chlorophenyl)-5-(1,5-dimethyl-6-oxo-1,6-dihydropyridin-3-yl)-3-ethoxy-2-methyl-4,5-dihydropyrrolo[3,4-c]pyrazol-6(2H)-one] the value was 0.107 µM; for `COc1c2c(nn1C)C(=O)N(c1cc(C)c(=O)n(C)c1)C2c1ccc(Cl)cc1` (centres unmarked) [Example 77, 4-(4-chlorophenyl)-5-(1,5-dimethyl-6-oxo-1,6-dihydropyridin-3-yl)-3-methoxy-2-methyl-4,5-dihydropyrrolo[3,4-c]pyrazol-6(2H)-one], 0.132 µM.
